What was measured:
[1] = tested on: OVCAR5 stably overexpressing CT45; assay: Clonogenic survival assay, OVCAR5; type: cell-based, human; conditions: CT45 expressing cells treated with carboplatin
Protocol: Cells were treated with different carboplatin concentrations for 48 hours and 7-9 days after treatment colonies were counted and plotted as a percent of control on a logarithmic scale.
Cells were treated with different carboplatin concentrations for 48-72 hours. 2000 cells per 6-well were then plated for 7-9 days in drug-free medium. Grown colonies were fixed and stained with 1% formaldehyde, 1% methanol and 0.05% Crystal Violet for 20 min. Colony numbers were then counted with the Colony Area ImageJ plugin and plotted as percent of control on a logarithmic scale.

[2] = tested on: γH2AX and cleaved caspase-3 in CT45-expressing cancer cells; assay: Western blot of γH2AX and cleaved caspase-3; type: cell-based, human; conditions: day 5
Protocol: (§1) Cells were treated with 5 μM carboplatin plus 1.5 nM paxlitaxel for 3 days and then incubated an additional 2 days without drug prior to collection on day 5. Both adherent and non-adherent cells were collected in RIPA buffer (25 mM Tris-HCl pH 7.6, 150 mM NaCl, 1% NP-40, 0.5% sodium deoxycholate, 0.1% SDS) supplemented with protease inhibitor cocktail (Thermo Scientific) and phosphatase inhibitor cocktail (Sigma). Lysates were incubated for 30 min on ice before centrifugation (15 min, 14 000 rpm, 4° C.). The quantity of protein was determined by BCA reagent (Pierce). The extracts were analyzed by SDS-PAGE on a 4-20% gradient gel (Bio-Rad).
as §1, with “indicated drugs” for “5 μM carboplatin plus 1.5 nM paxlitaxel”, “media was changed. On indicated” for “incubated an additional 2 days without drug prior to collection on”, “of collection, both” for “5. Both”, “ice, sonicated and cleared by” for “ice before”

[3] = tested on: OVCAR5-V5 (control plasmid) tumors; assay: Subcutaneous tumor growth in nude mice, control vector tumors; type: in vivo, athymic nude mice; conditions: carboplatin 20 mg/kg tail vein 1 time/week, control cell line
Protocol: (§2) 5 million OVCAR5-V5 or OVCAR5-V5-CT45 cells suspended in a 1:2 solution of serum-free media to growth-factor reduced matrigel were injected subcutaneously into the right and left flanks respectively, of 8 week old female athymic nude mice. After 5 days, treatment was administered through the tail vein 1 time/week at 20 mg/kg. Sterile water served as the control treatment. Tumor growth was measured every 2-3 days using calipers until the tumor neared 1 cm3 and was measured daily. Once the tumor reached 1 cm3 the mouse was sacrificed. 4 mice were removed from the study early due to ulcerations of the skin. All experiments were approved by the Institutional Animal Care and Use Committee of the University of Chicago.
as §2, with “Five million” for “5 million”, “8 weeks” for “8 week”, “1 cm^3” for “1 cm3”, “skin. […]” for “skin. All experiments were approved by the Institutional Animal Care and Use Committee of the University of Chicago.”

[4] = tested on: interaction of CT45 with heterochromatin-associated PP4; assay: ChIP-MS of V5-tagged CT45 ± carboplatin; type: cell-based, human; conditions: OVCAR5-V5-CT45 ± carboplatin
Protocol: For chromatin immunoprecipitation coupled to mass spectrometry (ChIP-MS), freshly harvested cells were crosslinked with 1% formaldehyde for 10 min in PBS. Cells were lysed in IP Buffer (50 mM Tris-HCl (pH 8), 100 mM NaCl, 5 mM EDTA (pH 8), 0.3% SDS, 1.7% Triton-X-100, supplemented with EDTA-free protease inhibitor cocktail (Roche) and phosphatase inhibitor cocktail (Roche)) and chromatin sonicated to an average size of 200-400 bp. 1 mg of total cell lysate was incubated with 3 μg of respective antibody overnight at 4° C. under constant rotation. The next day, 30 μl of protein G-coupled agarose beads (Cell signaling technology) were added and incubated for 3 h at 4° C. under constant rotation. Antibody-bait complexes were then washed three times with low salt wash buffer (50 mM HEPES pH 7.5, 140 mM NaCl, 1% Triton), once with high salt wash buffer (50 mM HEPES pH 7.5, 500 mM NaCl, 1% Triton) and twice with TBS. Elution was carried out by a partial on-bead digest as recently described. Peptides were finally desalted with C18 StageTips prior to MS analysis.

Structure (SMILES): N.N.O=C([O-])C1(C(=O)[O-])CCC1.[Pt+2] [carboplatin]
- colony formation [1]: significantly reduced
- levels of cleaved caspase-3 [2]: increased levels
- levels of γH2AX [2]: increased levels
- tumor growth [3]: no effect
- interaction of CT45 with heterochromatin-associated PP4 [4]: not affected
